We go through two compounds from article PMC9194936, “Preclinical Activity and Pharmacokinetic/Pharmacodynamic Relationship for a Series of Novel Benzenesulfonamide Perforin Inhibitors” (ACS Pharmacology & Translational Science, 2022).

Values joined by “and” are separate entries in the source; they are usually repeats but may differ in a detail not shown here. Equal values may be shown once.

For one experiment, the target named is T1, perforin (Mus musculus, UniProt P10820).
T1 construct: endogenous in cells; host or cells: recipient cytotoxic lymphocytes (NK/CTL) of wild-type C57BL/6 mice, in vivo
T1 sequence (P10820 21-554): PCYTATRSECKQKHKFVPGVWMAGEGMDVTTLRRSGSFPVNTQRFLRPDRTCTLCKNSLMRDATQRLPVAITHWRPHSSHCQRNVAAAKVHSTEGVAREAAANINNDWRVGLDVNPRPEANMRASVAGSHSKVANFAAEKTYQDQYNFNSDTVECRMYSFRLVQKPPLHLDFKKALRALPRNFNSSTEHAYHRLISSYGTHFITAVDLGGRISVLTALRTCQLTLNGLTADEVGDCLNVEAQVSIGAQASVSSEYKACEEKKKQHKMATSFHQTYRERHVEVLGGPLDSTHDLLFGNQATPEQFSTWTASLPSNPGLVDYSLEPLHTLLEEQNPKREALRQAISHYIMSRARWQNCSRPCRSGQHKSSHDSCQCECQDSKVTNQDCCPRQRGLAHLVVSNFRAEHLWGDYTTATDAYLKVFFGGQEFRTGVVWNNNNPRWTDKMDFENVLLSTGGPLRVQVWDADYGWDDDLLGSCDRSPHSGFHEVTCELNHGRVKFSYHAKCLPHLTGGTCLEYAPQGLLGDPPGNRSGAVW
As to the kind of experiment: In vivo perforin inhibition (allogeneic bone marrow transfer assay). As to the method:
This model was selected as a surrogate assay for graft rejection during allogeneic bone marrow/stem cell transplantation to enable rapid testing of perforin inhibition in vivo. Mice were transplanted with a mixture of equal numbers of allogeneic immunologically mismatched and syngeneic immunologically matched bone marrow. […] Allogeneic cell survival in spleen and peripheral blood was determined 24 h after transplant, using C57BL/6 perforin-deficient mice (100% perforin inhibition) and untreated C57BL/6 mice (0% perforin inhibition) as controls.
Compounds were tested for in vivo efficacy as described previously.[14] Age- (8–12 weeks) and sex-matched wild-type (H-2D^b, CD45.2^+) or perforin-deficient C57BL/6 mice (C57BL/6-Prf1^tm1Sdz/J; H-2D^b, CD45.2^+) received 12 ×10^6 bone marrow cells from both allogeneic BALB/c (H-2D^d) MHC-mismatched and syngeneic C57BL/6 (H-2D^b) MHC-matched mice (24 × 10^6 cells total). The wild-type recipient mice were treated with perforin inhibitor compounds by intraperitoneal injection in 20% hydroxypropyl-β-cyclodextrin vehicle (10 mL/kg), or with vehicle alone; perforin-deficient mice remained untreated. The mice were euthanized 24 h after bone marrow transfer for peripheral blood mononuclear cell (PBMC) and spleen collection.
Throughout the study, we utilized two strategies to distinguish between recipient, donor allogeneic, and donor syngeneic cells based on either fluorescent labeling prior to transplant or congenic marker expression (CD45.1/CD45.2). In the fluorescent dye approach, allogeneic wild-type BALB/c (H-2D^d, CD45.2^+) bone marrow was labeled with 1 μM carboxyfluorescein succinimidyl ester (CFSE) prior to mixing with syngeneic bone marrow from C57BL/6 congenic mice (CD45.1^+). Twenty-four hours after cell transfer, the harvested cells were stained with anti-CD45.1-phycoerythrin and anti-TER119-allophycocyanin monoclonal antibodies (BioLegend, San Diego, CA). TER119 was used for erythroid exclusion prior to the identification of allogeneic (CFSE^+) and syngeneic (CD45.1^+) donor cells. Using a second purely congenic marker approach, allogeneic BALB/c congenic (H-2D^d, CD45.1^+) bone marrow was mixed with syngeneic C57BL/6 double congenic (H-2D^b, CD45.1^+CD45.2^+) bone marrow prior to transfer. The harvested cells were stained with anti-CD45.1-phycoerythrin, anti-CD45.2-phycoerythrin-cyanine-7, and anti-TER119-allophycocyanin monoclonal antibodies (BioLegend, San Diego, CA). TER119 was used for erythroid exclusion, prior to identification of allogeneic donor (CD45.1^+), syngeneic donor (CD45.1^+ CD45.2^+), and recipient (CD45.2^+) cells. Dead cells were excluded using 7-aminoactinomycin D. Samples were acquired with an LSR Fortessa (BD Biosciences) and analyzed using FlowJo version 9 software (BD Biosciences). Prism version 9 (GraphPad) was used to calculate CTL indices as the percentage survival of syngeneic donor cells divided by the percentage survival of allogeneic donor cells. […] In vivo perforin inhibition animal experiments were approved by the Animal Ethics Committee of the QIMR Berghofer Medical Research Institute.

A further experiment concerns recombinant perforin. The arrangement: method as in PMID 28582670, PMID 28110869. The note with it: lytic activity of recombinant perforin against Jurkat T leukemia cells; cited from earlier work.
The mark [1] stands for this setting: 80 mg/kg bid (0 and 18 h), pooled with pretransplant dosing data.
Setting [2] is: 120 mg/kg bid (0 and 18 h), pooled with pretransplant dosing data.
The mark [3] stands for this setting: 160 mg/kg bid (0 and 18 h), pooled with pretransplant dosing data.
Where [4] appears, read: 160 mg/kg qd x 4 (0, 24, 48 h prior to and 18 h after transfer), 24 h after transplant.

The IC50 is the concentration that inhibits the measured activity by half. For the compound `CN1Cc2cc(-c3ccc(-c4cncc(NS(=O)(=O)c5ccccc5[N+](=O)[O-])c4)s3)ccc2C1=O` [Compound 1, N-{5-[5-(2-methyl-1-oxo-2,3-dihydro-1H-isoindol-5-yl)-2-thienyl]-3-pyridinyl}-2-nitrobenzenesulfonamide], the “% perforin inhibition, blood” value at perforin (setting [1]) is -0.71%; at perforin (80 mg/kg qd (one dose at 0 h)), -5.19%; on perforin (80 mg/kg qd x 4, 24 h after transplant), 26.33% and 26%; at perforin (80 mg/kg tid (0, 9 and 18 h)), -1.34%; on perforin (setting [2]) it was 43.66%; at perforin (120 mg/kg qd (one dose at 0 h)), 17.84%. The “% perforin inhibition, blood” value is 44.84% and 45% on perforin (120 mg/kg qd x 4, 24 h after transplant); 69.14% on perforin (120 mg/kg tid (0, 9 and 18 h)); 56.50% on perforin (setting [3]); 55.47% and 55% on perforin (160 mg/kg qd x 4, 24 h after transplant); 34.71% at perforin (120+80+80 mg/kg tid). Moreover, the “% perforin inhibition, spleen” value at perforin (setting [1]) was 7.66%; at perforin (80 mg/kg qd (one dose at 0 h)), -4.19%; at perforin (80 mg/kg qd x 4 (0, 24, 48 h prior to and 18 h after transfer), 24 h after transplant), 7.66% and 7%; on perforin (80 mg/kg tid (0, 9 and 18 h)), -1.98%; at perforin (setting [2]), 30.50%; on perforin (120 mg/kg qd (one dose at 0 h)) it was 16.71%. Besides, the “% perforin inhibition, spleen” value at perforin (120 mg/kg qd x 4 (0, 24, 48 h prior to and 18 h after transfer), 24 h after transplant) is 39.90% and 40%; on perforin (120 mg/kg tid (0, 9 and 18 h)), 40.42%; on perforin (setting [3]), 42.46%; on perforin (setting [4]) it was 48.20% and 48%; at perforin (120+80+80 mg/kg tid), 15.22%. Moreover, the “perforin inhibition in vivo (in words)” value is on record as “moderate perforin inhibition” at perforin (120 mg/kg followed by two doses of 80 mg/kg), “ineffective” on perforin (three doses of 80 mg/kg) and “highly active” on perforin (three doses of 120 mg/kg). In addition, in the experiment with recombinant perforin, the IC50 was 6.65 µM.

For the compound `O=C1NCc2ccc(-c3ccc(-c4cncc(NS(=O)(=O)c5ccc(F)cc5F)c4)s3)cc21` [Compound 7, 2,4-difluoro-N-{5-[5-(3-oxo-2,3-dihydro-1H-isoindol-5-yl)-2-thienyl]-3-pyridinyl}benzenesulfonamide], at perforin (setting [4]), the “% perforin inhibition, spleen” value was 26.55%. Besides, the IC50 in the experiment on recombinant perforin was 4.15 µM.
